The test system of one test is J774.A1. In words: Cytotoxicity against mouse J774A1 cells by trypan blue exclusion assay. The class given is cell-based.
For test [1], the system named is Staphylococcus aureus. In words: Antibacterial activity against Staphylococcus aureus ATCC 29213. The test is classed as functional.
Test [2] relates to Staphylococcus aureus. Description: Antibacterial activity against methicillin-resistant Staphylococcus aureus MW2. The class given is functional.
The subject of a further test is Enterococcus faecium. Description: Antibacterial activity against vancomycin-resistant Enterococcus faecium VRE1. The test is classed as functional.
The subject of another test is Enterococcus faecalis. In words: Antibacterial activity against Enterococcus faecalis ATCC 29212. The test is classed as functional.
In a further test the test system is Streptococcus pyogenes. In words: Antibacterial activity against Streptococcus pyogenes UWL. The class given is functional.
The next test relates to Escherichia coli. Description: Antibacterial activity against Escherichia coli. The class given is functional, organism-based.
Another test has as its system Pseudomonas aeruginosa. In words: Antibacterial activity against Pseudomonas aeruginosa. The class given is functional, organism-based.

≈ marks a conversion by molar mass, not a printed value. Calls of active or inactive are those of the source. No cut-off for these calls is given here.

The IC50 is the concentration that gives 50% inhibition. In general, MIC refers to the lowest concentration that inhibits growth of the organism. Lower therefore signals greater potency.

In the case of `COc1ccc(C[C@H](N)C(=O)N[C@H]2[C@@H](O)[C@H](n3cnc4c(N(C)C)ncnc43)O[C@@H]2CO)cc1` [PUROMYCIN], inhibition in the test with J774.A1 was half-maximal at 10 µM (IC50).
On to `CN(C)[C@@H]1C(O)=C(C(N)=O)C(=O)[C@@]2(O)C(O)=C3C(=O)c4c(O)cccc4[C@@](C)(O)[C@H]3C[C@@H]12` [TETRACYCLINE], for which the MIC in the test with Staphylococcus aureus [1] came to 0.25 µg/mL (≈ 0.563 µM); with Staphylococcus aureus [2], 0.125 µg/mL (≈ 0.281 µM); against Enterococcus faecium it was 4 µg/mL (≈ 9 µM); with Enterococcus faecalis, 16 µg/mL (≈ 36 µM); against Streptococcus pyogenes, 0.125 µg/mL (≈ 0.281 µM).
As for `O=C1C=C[C@]2(O[C@@H]3c4c2ccc(O)c4C(=O)[C@@H]2O[C@H]32)c2cccc(O)c21` [URNUCRATIN A], the MIC was found to be 2 µg/mL (≈ 5.74 µM) against Staphylococcus aureus [1]; 2 µg/mL (≈ 5.74 µM) with Staphylococcus aureus [2]; 1 µg/mL (≈ 2.87 µM) in the test with Enterococcus faecium; 0.5 µg/mL (≈ 1.44 µM) with Enterococcus faecalis; 0.5 µg/mL (≈ 1.44 µM) against Streptococcus pyogenes. Also, the result with Escherichia coli and in the test with Pseudomonas aeruginosa was inactive. Moreover, the half-inhibitory concentration (IC50) in the test with J774.A1 is over 100 µM.
`COc1cccc2c1C(=O)C=C[C@]21O[C@@H]2c3c1ccc(O)c3C(=O)[C@@H]1O[C@H]21` [URNUCRATIN B]: the MIC came to 8 µg/mL (≈ 22.1 µM) in the test with Staphylococcus aureus [1]; 8 µg/mL (≈ 22.1 µM) with Staphylococcus aureus [2]; 8 µg/mL (≈ 22.1 µM) in the test with Enterococcus faecium; 8 µg/mL (≈ 22.1 µM) against Enterococcus faecalis; 4 µg/mL (≈ 11 µM) against Streptococcus pyogenes. Moreover, the result in the test on Escherichia coli and in the test with Pseudomonas aeruginosa was inactive. The IC50 with J774.A1 was over 100 µM.
For `COc1cccc2c1C(=O)C=C[C@]21O[C@@H]2c3c1ccc(O)c3[C@H](O)[C@@H]1O[C@@H]12` [URNUCRATIN C], the MIC in the test on Staphylococcus aureus [1], with Staphylococcus aureus [2], against Enterococcus faecium, with Enterococcus faecalis and with Streptococcus pyogenes was 64 µg/mL (≈ 176 µM) each time. In addition, the outcome with Escherichia coli and with Pseudomonas aeruginosa was inactive. Also, the IC50 in the test on J774.A1 is over 100 µM.
For the compound `CN[C@H](CC(C)C)C(=O)N[C@H]1C(=O)N[C@@H](CC(N)=O)C(=O)N[C@H]2C(=O)N[C@H]3C(=O)N[C@H](C(=O)N[C@H](C(=O)O)c4cc(O)cc(O)c4-c4cc3ccc4O)[C@H](O)c3ccc(c(Cl)c3)Oc3cc2cc(c3O[C@@H]2O[C@H](CO)[C@@H](O)[C@H](O)[C@H]2O[C@H]2C[C@](C)(N)[C@H](O)[C@H](C)O2)Oc2ccc(cc2Cl)[C@H]1O` [VANCOMYCIN], the figures for the MIC in the test on Enterococcus faecium, against Enterococcus faecalis and with Streptococcus pyogenes were 64 µg/mL (≈ 44.2 µM), 2 µg/mL (≈ 1.38 µM) and 1 µg/mL (≈ 0.69 µM), respectively.

The values are drawn from ChEMBL document CHEMBL2146412, “Antibacterial spirobisnaphthalenes from the North American cup fungus Urnula craterium” (J Nat Prod, 2012).
